Data: US20200078468A1, “NEUROTENSIN RECEPTOR BINDING CONJUGATES AND FORMULATIONS THEREOF” (priority 2016, published 2020)
Numbered stars: 1 amine (or outer) side, 2 acyl side, 3 side chain; on linkers, the order of the positions; unused ones are H or OH. Bridge positions count the residues as written; N and C are the ends. Square brackets hold non-standard residues; d marks the D form. Peptide text beside a SMILES is read from it. I, II: the chains in the order shown. * marks the point of attachment. X5 = CC(C)C[C@H](NC(=O)[C@H](Cc1ccccc1)NC(=O)CCCCCN1C(=O)CC(*)C1=O)B1O[C@@H]2[C@@H]3C[C@H](C[C@]2(C)O1)C3(C)C; SN38(20-O) = CCc1c2c(nc3ccc(O)cc13)-c1cc3c(c(=O)n1C2)COC(=O)[C@@]3(CC)O*; Hexanoyl(6-succinimido-3yl) = O=C1CC([*:1])C(=O)N1CCCCCC(=O)[*:2]; Pen = CC(C)(S)[C@H](N)C(=O)O; Tle = CC(C)(C)[C@H](N)C(=O)O

Test system: SW48 (human colon cancer cells)
Assay: inhibition of SW48 cell proliferation (CellTiter Glo)
Format: cell-based
Conditions: NTSR1 targeted compound; 72 hrs; read-out: SW-48 proliferation IC50
Experimental: Conjugates were assessed in an in vitro assay evaluating inhibition of cell proliferation. SW48 (human colon cancer cells, ATCC®), cells were plated in 96 well, flat-bottomed plates (Costar) at a concentration of 5,000 cells/well. Cells were then incubated at 37° C. with 5% CO2 for 24 hrs. After 24 hrs, cells were treated with 0.01% DMSO or compound. Compounds were added at a starting dose of 10 μM and three fold serial dilutions were done for a total often points. Following compound addition, cells were incubated at 37° C. with 5% CO2 for 72 hrs. Proliferation was measured by CellTiter Glo reagent using the standard protocol (Promega) and a Glomax multi+detection system (Promega). Percent proliferation inhibition was calculated using the following formula: % inhibition=(control−treatment)/control*100. Control is defined as vehicle alone. IC50 curves were generated using the nonlinear regression analysis (four parameter) with GraphPad Prism 6.
Conjugates are assessed for receptor-dependent cytotoxicity by the difference between an NTSR1-targeting conjugate, and the corresponding conjugate with the same linker moiety and active agent where the NTSR1-targeting domain has been scrambled.

Structure (SMILES) | IC50
CC(=O)N[C@H](C(=O)N1CCC[C@H]1C(=O)N[C@@H](CCCNC(=N)N)C(=O)N[C@@H](CCCNC(=N)N)C(=O)N1CCC[C@H]1C(=O)N[C@@H](Cc1ccc(O)cc1)C(=O)N[C@H](C(=O)N[C@@H](CC(C)C)C(=O)O)C(C)(C)C)C(C)(C)SC1CC(=O)N(CCCCCC(=O)N[C@@H](Cc2ccccc2)C(=O)N[C@@H](CC(C)C)B2O[C@@H]3[C@@H]4C[C@H](C[C@]3(C)O2)C4(C)C)C1=O (stereo partly drawn) [Compound 1] (Ac-[Pen](X5)PRRPY[Tle]L-OH) | > 10000 nM
CO[C@H]1C(=O)[C@]2(C)[C@@H](OC)C[C@H]3OC[C@@]3(OC(C)=O)[C@H]2[C@H](OC(=O)c2ccccc2)[C@]2(O)C[C@H](OC(=O)[C@H](OC(=O)N(C)CCN(C)C(=O)OCc3ccc(NC(=O)[C@H](CCCNC(N)=O)NC(=O)[C@@H](NC(=O)CCCCCN4C(=O)CC(SC(C)(C)[C@H](NC(C)=O)C(=O)N5CCC[C@H]5C(=O)N[C@@H](CCCNC(=N)N)C(=O)N[C@@H](CCCNC(=N)N)C(=O)N5CCC[C@H]5C(=O)N[C@@H](Cc5ccc(O)cc5)C(=O)N[C@H](C(=O)N[C@@H](CC(C)C)C(=O)O)C(C)(C)C)C4=O)C(C)C)cc3)[C@@H](NC(=O)OC(C)(C)C)c3ccccc3)C(C)=C1C2(C)C (some centres unmarked) [Compound 5] | 1700 nM
CO[C@H]1C(=O)[C@]2(C)[C@@H](OC)C[C@H]3OC[C@@]3(OC(C)=O)[C@H]2[C@H](OC(=O)c2ccccc2)[C@]2(O)C[C@H](OC(=O)[C@H](OC(=O)N(C)CCN(C)C(=O)OCc3ccc(NC(=O)[C@H](CCCNC(N)=O)NC(=O)[C@@H](NC(=O)CCCCCN4C(=O)CC(SC(C)(C)[C@H](NC(C)=O)C(=O)N5CCC[C@H]5C(=O)N[C@@H](CCCNC(=N)N)C(=O)N(C)[C@@H](CCCNC(=N)N)C(=O)N5CCC[C@H]5C(=O)N[C@@H](Cc5ccc(O)cc5)C(=O)N[C@H](C(=O)N[C@@H](CC(C)C)C(=O)O)C(C)(C)C)C4=O)C(C)C)cc3)[C@@H](NC(=O)OC(C)(C)C)c3ccccc3)C(C)=C1C2(C)C (some centres unmarked) [Compound 6] | 2240 nM
CO[C@H]1C(=O)[C@]2(C)[C@@H](OC)C[C@H]3OC[C@@]3(OC(C)=O)[C@H]2[C@H](OC(=O)c2ccccc2)[C@]2(O)C[C@H](OC(=O)[C@H](OC(=O)N(C)CCN(C)C(=O)OCc3ccc(NC(=O)[C@H](CCCNC(N)=O)NC(=O)[C@@H](NC(=O)CCCCCN4C(=O)CC(SC(C)(C)[C@H](NC(C)=O)C(=O)N5CCC[C@H]5C(=O)N[C@@H](CCCNC(=N)N)C(=O)N(C)[C@@H](CCCNC(=N)N)C(=O)N5CCC[C@H]5C(=O)N[C@H](Cc5ccc(O)cc5)C(=O)N[C@H](C(=O)N[C@@H](CC(C)C)C(=O)O)C(C)(C)C)C4=O)C(C)C)cc3)[C@@H](NC(=O)OC(C)(C)C)c3ccccc3)C(C)=C1C2(C)C (some centres unmarked) [Compound 7] | 2000 nM
CO[C@H]1C(=O)[C@]2(C)[C@@H](OC)C[C@H]3OC[C@@]3(OC(C)=O)[C@H]2[C@H](OC(=O)c2ccccc2)[C@]2(O)C[C@H](OC(=O)[C@H](OC(=O)N(C)CCN(C)C(=O)OCc3ccc(NC(=O)[C@H](CCCNC(N)=O)NC(=O)[C@@H](NC(=O)CCCCCN4C(=O)CC(SC(C)(C)[C@H](NC(C)=O)C(=O)N5CCC[C@H]5C(=O)N[C@@H](CCCCN)C(=O)N(C)[C@@H](CCCNC(=N)N)C(=O)N5CCC[C@H]5C(=O)N[C@@H](Cc5ccc(O)cc5)C(=O)N[C@H](C(=O)N[C@@H](CC(C)C)C(=O)O)C(C)(C)C)C4=O)C(C)C)cc3)[C@@H](NC(=O)OC(C)(C)C)c3ccccc3)C(C)=C1C2(C)C (some centres unmarked) [Compound 8] | 2450 nM
CO[C@H]1C(=O)[C@]2(C)[C@@H](OC)C[C@H]3OC[C@@]3(OC(C)=O)[C@H]2[C@H](OC(=O)c2ccccc2)[C@]2(O)C[C@H](OC(=O)[C@H](OC(=O)N(C)CCCNC(=O)CNC(=O)[C@H](CC(C)C)NC(=O)[C@H](Cc3ccccc3)NC(=O)CNC(=O)CCCCCN3C(=O)CC(SCCC(=O)NCCCC[C@H](NC(C)=O)C(=O)N4CCC[C@H]4C(=O)N(C)[C@@H](CCCNC(=N)N)C(=O)N[C@@H](CCCNC(=N)N)C(=O)N4CCC[C@H]4C(=O)N[C@@H](Cc4ccc(O)cc4)C(=O)N[C@H](C(=O)N[C@@H](CC(C)C)C(=O)O)C(C)(C)C)C3=O)[C@@H](NC(=O)OC(C)(C)C)c3ccccc3)C(C)=C1C2(C)C (some centres unmarked) [Compound 9] | > 10000 nM
COc1cc2cc(c1Cl)N(C)C(=O)C[C@H](OC(=O)[C@H](C)N(C)C(=O)CCSC1CC(=O)N(CCCNC(=O)CNC(=O)[C@H](CC(C)C)NC(=O)[C@H](Cc3ccccc3)NC(=O)CNC(=O)CCCCCN3C(=O)CC(SCCC(=O)NCCCC[C@H](NC(C)=O)C(=O)N4CCC[C@H]4C(=O)N(C)[C@@H](CCCNC(=N)N)C(=O)N[C@@H](CCCNC(=N)N)C(=O)N4CCC[C@H]4C(=O)N[C@@H](Cc4ccc(O)cc4)C(=O)N[C@H](C(=O)N[C@@H](CC(C)C)C(=O)O)C(C)(C)C)C3=O)C1=O)[C@]1(C)O[C@H]1[C@H](C)[C@@H]1C[C@@](O)(NC(=O)O1)[C@H](OC)/C=C/C=C(\C)C2 (some centres unmarked) [Compound 23] | 38.6 nM
COc1cc2cc(c1Cl)N(C)C(=O)C[C@H](OC(=O)[C@H](C)N(C)C(=O)CCSC1CC(=O)N(CCCNC(=O)CNC(=O)[C@H](CC(C)C)NC(=O)[C@H](Cc3ccccc3)NC(=O)CNC(=O)CCCCCN3C(=O)CC(SCCC(=O)NCCOCCOCCC(=O)NCCCC[C@H](NC(C)=O)C(=O)N4CCC[C@H]4C(=O)N(C)[C@@H](CCCNC(=N)N)C(=O)N[C@@H](CCCNC(=N)N)C(=O)N4CCC[C@H]4C(=O)N[C@@H](Cc4ccc(O)cc4)C(=O)N[C@H](C(=O)N[C@@H](CC(C)C)C(=O)O)C(C)(C)C)C3=O)C1=O)[C@]1(C)O[C@H]1[C@H](C)[C@@H]1C[C@@](O)(NC(=O)O1)[C@H](OC)/C=C/C=C(\C)C2 (some centres unmarked) [Compound 24] | 2 nM
COc1cc2cc(c1Cl)N(C)C(=O)C[C@H](OC(=O)[C@H](C)N(C)C(=O)CCSC1CC(=O)N(CCCNC(=O)CNC(=O)[C@H](CC(C)C)NC(=O)[C@H](Cc3ccccc3)NC(=O)CNC(=O)CCCCCN3C(=O)CC(SCCC(=O)NCCOCCOCCOCCOCCC(=O)NCCCC[C@H](NC(C)=O)C(=O)N4CCC[C@H]4C(=O)N(C)[C@@H](CCCNC(=N)N)C(=O)N[C@@H](CCCNC(=N)N)C(=O)N4CCC[C@H]4C(=O)N[C@@H](Cc4ccc(O)cc4)C(=O)N[C@H](C(=O)N[C@@H](CC(C)C)C(=O)O)C(C)(C)C)C3=O)C1=O)[C@]1(C)O[C@H]1[C@H](C)[C@@H]1C[C@@](O)(NC(=O)O1)[C@H](OC)/C=C/C=C(\C)C2 (some centres unmarked) [Compound 25] | 2.2 nM
COc1cc2cc(c1Cl)N(C)C(=O)C[C@H](OC(=O)[C@H](C)N(C)C(=O)CCSC1CC(=O)N(CCCNC(=O)CNC(=O)[C@H](CC(C)C)NC(=O)[C@H](Cc3ccccc3)NC(=O)CNC(=O)CCCCCN3C(=O)CC(SCCC(=O)NCCOCCOCCOCCOCCOCCOCCOCCOCCC(=O)NCCCC[C@H](NC(C)=O)C(=O)N4CCC[C@H]4C(=O)N(C)[C@@H](CCCNC(=N)N)C(=O)N[C@@H](CCCNC(=N)N)C(=O)N4CCC[C@H]4C(=O)N[C@@H](Cc4ccc(O)cc4)C(=O)N[C@H](C(=O)N[C@@H](CC(C)C)C(=O)O)C(C)(C)C)C3=O)C1=O)[C@]1(C)O[C@H]1[C@H](C)[C@@H]1C[C@@](O)(NC(=O)O1)[C@H](OC)/C=C/C=C(\C)C2 (some centres unmarked) [Compound 26] | 5 nM
CC[C@H](C)[C@@H]([C@@H](CC(=O)N1CCC[C@H]1[C@H](OC)[C@@H](C)C(=O)N[C@H](C)[C@@H](O)c1ccccc1)OC)N(C)C(=O)[C@@H](NC(=O)[C@H](C(C)C)N(C)C(=O)OCc1ccc(NC(=O)[C@H](CCCNC(N)=O)NC(=O)[C@@H](NC(=O)CCCCCN2C(=O)CC(SCCC(=O)NCCOCCOCCC(=O)NCCCC[C@H](NC(C)=O)C(=O)N3CCC[C@H]3C(=O)N(C)[C@@H](CCCNC(=N)N)C(=O)N[C@@H](CCCNC(=N)N)C(=O)N3CCC[C@H]3C(=O)N[C@@H](Cc3ccc(O)cc3)C(=O)N[C@H](C(=O)N[C@@H](CC(C)C)C(=O)O)C(C)(C)C)C2=O)C(C)C)cc1)C(C)C (some centres unmarked) [Compound 60] | 44.6 nM
CC[C@H](C)[C@@H]([C@@H](CC(=O)N1CCC[C@H]1[C@H](OC)[C@@H](C)C(=O)N[C@H](C)[C@@H](O)c1ccccc1)OC)N(C)C(=O)[C@@H](NC(=O)[C@H](C(C)C)N(C)C(=O)OCc1ccc(NC(=O)[C@H](CCCNC(N)=O)NC(=O)[C@@H](NC(=O)CCCCCN2C(=O)CC(SCCC(=O)NCCOCCOCCOCCOCCC(=O)NCCCC[C@H](NC(C)=O)C(=O)N3CCC[C@H]3C(=O)N(C)[C@@H](CCCNC(=N)N)C(=O)N[C@@H](CCCNC(=N)N)C(=O)N3CCC[C@H]3C(=O)N[C@@H](Cc3ccc(O)cc3)C(=O)N[C@H](C(=O)N[C@@H](CC(C)C)C(=O)O)C(C)(C)C)C2=O)C(C)C)cc1)C(C)C (some centres unmarked) [Compound 61] | 33.7 nM
CC[C@H](C)[C@@H]([C@@H](CC(=O)N1CCC[C@H]1[C@H](OC)[C@@H](C)C(=O)N[C@H](C)[C@@H](O)c1ccccc1)OC)N(C)C(=O)[C@@H](NC(=O)[C@H](C(C)C)N(C)C(=O)OCc1ccc(NC(=O)[C@H](CCCNC(N)=O)NC(=O)[C@@H](NC(=O)CCCCCN2C(=O)CC(SCCC(=O)NCCOCCOCCOCCOCCOCCOCCOCCOCCC(=O)NCCCC[C@H](NC(C)=O)C(=O)N3CCC[C@H]3C(=O)N(C)[C@@H](CCCNC(=N)N)C(=O)N[C@@H](CCCNC(=N)N)C(=O)N3CCC[C@H]3C(=O)N[C@@H](Cc3ccc(O)cc3)C(=O)N[C@H](C(=O)N[C@@H](CC(C)C)C(=O)O)C(C)(C)C)C2=O)C(C)C)cc1)C(C)C (some centres unmarked) [Compound 62] | 50.1 nM
CCc1c2c(nc3ccc(O)cc13)-c1cc3c(c(=O)n1C2)COC(=O)[C@@]3(CC)OC(=O)CNC(=O)CNC(=O)[C@H](CC(C)C)NC(=O)[C@H](Cc1ccccc1)NC(=O)CNC(=O)CCCCCN1C(=O)CC(SC(C)(C)[C@H](NC(C)=O)C(=O)N2CCC[C@H]2C(=O)N[C@@H](CCCNC(=N)N)C(=O)N[C@@H](CCCNC(=N)N)C(=O)N2CCC[C@H]2C(=O)N[C@@H](Cc2ccc(O)cc2)C(=O)N[C@H](C(=O)N[C@@H](CC(C)C)C(=O)O)C(C)(C)C)C1=O (stereo partly drawn) [Compound 65] (I: Ac-[Pen]PRRPY[Tle]L-OH / II: GFLGG-{SN38(20-O)}; linker I:1-II:N via Hexanoyl(6-succinimido-3yl)) | 800 nM
